Patent US20240409557A1, “5,6-FUSED AND 6,6-FUSED BICYCLIC ALCOHOLS AND ETHERS AND COMPOSITIONS FOR USE AS 15-PROSTAGLANDIN DEHYDROGENASE MODULATORS” (AMGEN INC., priority 2023, published 2024)

Biological target: T1, human recombinant 15-PGDH (Homo sapiens, UniProt P15428)
T1 sequence (P15428 1-266): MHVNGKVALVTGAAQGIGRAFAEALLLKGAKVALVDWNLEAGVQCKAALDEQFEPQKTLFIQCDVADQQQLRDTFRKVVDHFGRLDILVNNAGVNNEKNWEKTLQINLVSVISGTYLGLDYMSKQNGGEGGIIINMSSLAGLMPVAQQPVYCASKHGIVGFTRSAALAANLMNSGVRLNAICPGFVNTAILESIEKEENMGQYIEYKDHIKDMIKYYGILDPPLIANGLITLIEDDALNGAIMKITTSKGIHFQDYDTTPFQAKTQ
Assay: Recombinant 15-PGDH enzymatic inhibition assay (PGDH-Lumi, NADH signal)
Format: biochemical
Conditions: recombinant 15-PGDH; 15 min pre-incubation, 60 min reaction with PGE2 and NAD+, NADH signal
Description: These assays measured 15-PGDH enzymatic activity by quantifying the amount of NADH produced during a 60-minute reaction initiated by the addition of PGE2 and NAD+. Under the conditions of these experiments, the increase of NADH signal upon oxidation of PGE2 and reduction of NAD+ was linearly proportional to 15-PGDH enzymatic activity. The recombinant human, mouse, rat and dog 15-PGDH enzymatic assays were performed in a 25 μL volume of reaction buffer containing 50 mM Tris, pH 7.5, 0.01% Tween-20 and […] DTT in a 384-well microtiter plate. In concentration-response experiments with tested compounds, 22 concentrations from 2-fold serial dilutions in DMSO were pre-incubated with 15-PGDH for 15 minutes at room temperature. Then, PGE2 and β-NAD+ were added to initiate the 15-PGDH reaction. After 60 minutes at room temperature, the reaction was quenched and NADH signal was measured using a microtiter plate reader.
The following data (Table 27-1) provides the IC50 in μM of each compound for inhibiting enzymatic activity of the recombinant 15-PGDH in the assay described above.

IC50 [nM]	SMILES
58.6	Cn1nccc1-c1cc(-c2ccnn2C)c2cc(C(O)C3CCC3)sc2n1 (stereo not shown) [Compound B1, (4,6-bis(1-methyl-1H-pyrazol-5-yl)thieno[2,3-b]pyridin-2-yl)(cyclobutyl)methanol]
64.3	Cn1cc2cc(-c3cc(-c4ccnn4C)nc4sc(C(O)C5CCC5)cc34)cnc2n1 (stereo not shown) [Compound B3, cyclobutyl(4-(2-methyl-2H-pyrazolo[3,4-b]pyridin-5-yl)-6-(1-methyl-1H-pyrazol-5-yl)thieno[2,3-b]pyridin-2-yl)methanol]
39.7	COC(c1cc2c(-c3ccnn3C)cc(-c3cnc4nn(C)cc4c3)nc2s1)C1CCC1 (stereo not shown) [Compound B4]
78.4	CC(O)c1cc2c(-c3cnc4nn(C)cc4c3)cc(-c3ccnn3C)nc2s1 (stereo not shown) [Compound B5, 1-(4-(2-methyl-2H-pyrazolo[3,4-b]pyridin-5-yl)-6-(1-methyl-1H-pyrazol-5-yl)thieno[2,3-b]pyridin-2-yl)ethanol]
14.9	Cn1cc2cc(-c3cc(C4CC4)nc4sc(C(O)C5CCC5)cc34)cnc2n1 (stereo not shown) [Compound B7, cyclobutyl(6-cyclopropyl-4-(2-methyl-2H-pyrazolo[3,4-b]pyridin-5-yl)thieno[2,3-b]pyridin-2-yl)methanol]
17700	CC(O)c1cc2c(-c3ccnn3C)cc(-c3ccnn3C)nc2s1 (stereo not shown) [Compound B9, 1-(4,6-bis(1-methyl-1H-pyrazol-5-yl)thieno[2,3-b]pyridin-2-yl)ethanol]
139	CC(O)c1cc2c(-c3cnc4nn(C)cc4c3)cc(-c3cnc4nn(C)cc4c3)nc2s1 (stereo not shown) [Compound B10, 1-(4,6-bis(2-methyl-2H-pyrazolo[3,4-b]pyridin-5-yl)thieno[2,3-b]pyridin-2-yl)ethanol]
57.8	CC(O)c1cc2c(-c3cnc4nn(C)cc4c3)cc(C3CC3)nc2s1 (stereo not shown) [Compound B12, 1-(6-cyclopropyl-4-(2-methyl-2H-pyrazolo[3,4-b]pyridin-5-yl)thieno[2,3-b]pyridin-2-yl)ethanol]
27	CN1CCC(C(O)c2cc3ccc(-c4cnc5nn(C)cc5c4)nc3s2)CC1 (stereo not shown) [Compound B33, (1-methyl-4-piperidinyl)(6-(2-methyl-2H-pyrazolo[3,4-b]pyridin-5-yl)thieno[2,3-b]pyridin-2-yl)methanol]
20.7	Cn1ncc2cc(-c3ccc4cc(C(O)C5CCOCC5)sc4n3)ccc21 (stereo not shown) [Compound B34, (6-(1-methyl-1H-indazol-5-yl)thieno[2,3-b]pyridin-2-yl)(tetrahydro-2H-pyran-4-yl)methanol]
12.8	CN1CC(C(O)c2cc3ccc(-c4cnc5nn(C)cc5c4)nc3s2)C1 (stereo not shown) [Compound B42, (1-methyl-3-azetidinyl)(6-(2-methyl-2H-pyrazolo[3,4-b]pyridin-5-yl)thieno[2,3-b]pyridin-2-yl)methanol]
8.64	CN1CCC1C(O)c1cc2ccc(-c3cnc4nn(C)cc4c3)nc2s1 (stereo not shown) [Compound B45]
9.35	CCCC(O)c1cc2ccc(-c3cnc4nn(C)cc4c3)cc2s1 (stereo not shown) [Compound B54, 1-(6-(2-methyl-2H-pyrazolo[3,4-b]pyridin-5-yl)-1-benzothiophen-2-yl)-1-butanol]

Second part, the compound before the results:

SMILES	IC50 [nM]
C[C@H](O)c1cc2c(C3CC3)cc(-c3cnc4nn(C)cc4c3)nc2s1 (single isomer, unassigned) [Compound B11S]	98.1
CC[C@H](O)c1cc2c(C3CC3)cc(-c3cnc4nn(C)cc4c3)nc2s1 (single isomer, unassigned) [Compound B13S]	23.6
CC(C)[C@H](O)c1cc2ccc(-c3cnc4nn(C)cc4c3)nc2s1 (single isomer, unassigned) [Compound B24S]	15.9
Cn1cc2cc(-c3ccc4cc([C@@H](O)C5CCC(F)(F)CC5)sc4n3)cnc2n1 (single isomer, unassigned) [Compound B31S]	5.64
Cn1ncc2cc(-c3ccc4cc([C@@H](O)C5CCOCC5)sc4n3)ccc21 (single isomer, unassigned) [Compound B34S]	4700
Cn1ncc2cc(-c3ccc4cc([C@@H](O)C5CCOCC5)sc4n3)cnc21 (single isomer, unassigned) [Compound B35S]	149
O[C@H](c1cc2ccc(-c3ccc4[nH]ncc4c3)nc2s1)C1CCOCC1 (single isomer, unassigned) [Compound B37S]	1880
Cc1cc2[nH]ncc2cc1-c1ccc2cc([C@H](O)C3CCOCC3)sc2n1 (single isomer, unassigned) [Compound B38R]	93
Cc1cc2[nH]ncc2cc1-c1ccc2cc([C@@H](O)C3CCOCC3)sc2n1 (single isomer, unassigned) [Compound B38S]	1010
Cn1nc2cc(-c3ccc4cc([C@@H](O)C5CCOCC5)sc4n3)cnc2n1 (single isomer, unassigned) [Compound B39S]	184
Cc1n[nH]c2ccc(-c3ccc4cc([C@H](O)C5CCOCC5)sc4n3)cc12 (single isomer, unassigned) [Compound B40R]	7.16
Cc1n[nH]c2ccc(-c3ccc4cc([C@@H](O)C5CCOCC5)sc4n3)cc12 (single isomer, unassigned) [Compound B40S]	3400
Cn1nnc2cc(-c3ccc4cc([C@@H](O)C5CCOCC5)sc4n3)cnc21 (single isomer, unassigned) [Compound B41S]	151
O[C@H](c1cc2ccc(-c3ccc4oncc4c3)nc2s1)C1CCOCC1 (single isomer, unassigned) [Compound B43S]	626
O[C@H](c1cc2ccc(-c3cnc4[nH]nnc4c3)nc2s1)C1CCOCC1 (single isomer, unassigned) [Compound B44S]	133
Cc1cn2cc(-c3ccc4cc([C@@H](O)C5CC(F)(F)C5)sc4n3)ccc2n1 (single isomer, unassigned) [Compound B48S]	11.8
Cn1cnc(-c2ccc3cc([C@@H](O)C4CC(F)(F)C4)sc3n2)cc1=O (single isomer, unassigned) [Compound B49S]	9.3

SMILES	IC50 [nM]
Cc1nc2ccc(-c3ccc4cc([C@@H](O)C5CC(F)(F)C5)sc4n3)cc2o1 (single isomer, unassigned) [Compound B51S]	6.58
CCC[C@H](O)c1cc2ccc(-c3cnc4nn(C)cc4c3)cc2s1 (single isomer, unassigned) [Compound B54S]	757
CC(C)n1cc2cc(-c3ccc4cc([C@@H](O)C5CC(F)(F)C5)sc4n3)ccc2n1 (single isomer, unassigned) [Compound B56S]	18.3
O[C@H](c1cc2ccc(-c3cncnc3)nc2s1)C1CC(F)(F)C1 (single isomer, unassigned) [Compound B57S]	13.2
Cn1cc2cc(-c3ccc4cc([C@@H](O)C5CCCC5)sc4c3)cnc2n1 (single isomer, unassigned) [Compound B58S]	111
COCC[C@H](O)c1cc2ccc(-c3cnc4nn(C)cc4c3)cc2s1 (single isomer, unassigned) [Compound B59S]	1100
Cn1cc2cc(-c3ccc4cc([C@@H](O)CCC(F)(F)F)sc4c3)cnc2n1 (single isomer, unassigned) [Compound B60S]	308
CC(C)n1ncc2cc(-c3ccc4cc([C@@H](O)C5CC(F)(F)C5)sc4n3)cnc21 (single isomer, unassigned) [Compound B65S]	23.1
[2H][C@@](O)(c1cc2ccc(-c3cnc4nn(C)cc4c3)nc2s1)C1CCOCC1 (single isomer, unassigned) [Compound B66S]	155
Cn1cc2cc(-c3ccc4cc([C@@H](CO)C5CC(F)(F)C5)sc4n3)cnc2n1 (single isomer, unassigned) [Compound B80R]	46.7
C[C@@H]1CC[C@@]1(O)c1cc2ccc(-c3cnc4nn(C)cc4c3)nc2s1 (single isomer, unassigned) [Compound C64SR]	466
Cn1cc2cc(-c3ccc4cc([C@]5(O)CCC5(C)C)sc4n3)cnc2n1 (single isomer, unassigned) [Compound C65S]	1990
Cn1cc2cc(-c3ccc4cc(CO)sc4n3)cnc2n1 [Compound A1, (6-(2-methyl-2H-pyrazolo[3,4-b]pyridin-5-yl)thieno[2,3-b]pyridin-2-yl)methanol]	159
CN(C)c1c(CO)c(-c2cnc3nn(C)cc3c2)nc2sc(CO)cc12 [Compound A2, (4-(dimethylamino)-6-(2-methyl-2H-pyrazolo[3,4-b]pyridin-5-yl)thieno[2,3-b]pyridine-2,5-diyl)dimethanol]	2160
COCc1cc2c(C3CCC3)cc(-c3cnc4nn(C)cc4c3)nc2s1 [Compound A3, 5-(4-cyclobutyl-2-(methoxymethyl)thieno[2,3-b]pyridin-6-yl)-2-methyl-2H-pyrazolo[3,4-b]pyridine]	671
COCc1cc2c(C3(COC)CCC3)cc(-c3cnc4nn(C)cc4c3)nc2s1 [Compound A4, 5-(2-(methoxymethyl)-4-(1-(methoxymethyl)cyclobutyl)thieno[2,3-b]pyridin-6-yl)-2-methyl-2H-pyrazolo[3,4-b]pyridine]	> 100000
